In this assay the test system is Gardnerella vaginalis. Description: Gardnerella vaginalis-infected mouse vaginitis model, microbiome analysis after vaginal administration. It counts as in vivo, female mice (BALB/c mice). As to the method:
The hormone control and estrous cycle were induced by intraperitoneally injecting 0.5 mg of beta-esteradiol 3-benzonate to female mice (BALB/c mice). After three days, they were directly infected with Gardnerella vaginalis in the vagina at a concentration of 1×10^7 CFU per mouse to establish a vaginitis animal model. Thereafter, four kinds of Lactobacillus isolates corresponding to 10^8 to 10^9 CFU per mouse were vaginally administered (7 mice per group). On day 2, the total bacterial DNA was extracted from the vaginal samples washed with 0.1 mL of PBS (Phosphate Buffered Saline) and microbiome community analysis was performed to measure the relative abundance of Gardnerella vaginalis and other vaginal microbiota. […] The analyzed sequences were subjected to microbiome analysis including taxon profile, α-diversity and β-diversity showing the difference in community structure between groups through Qiime pipeline, and the change in the amount of Gardnerella vaginalis pathogens upon the administration of Lactobacillus isolates was evaluated by calculating relative abundances (/% GV treatment group).

For the molecule `Cc1ncc([N+](=O)[O-])n1CCO` [MTZ, metronidazole], the “community structure of the vaginal microflora (Unweighted UniFrac distance)” value (compared to Gardnerella vaginalis-infected control group, after 2 days of administration) is “no change in the community structure”. Moreover, the “Relative abundance (/% GV group) of Gardnerella vaginalis” value (vaginal administration after infection, day 2, 16S microbiome analysis, GV group = 100) is listed as 74.9 /% GV group.

(Values after patent US12070477B2, “Lactobacillus sp. strain having ability to inhibit growth of vaginal pathogenic microorganisms” (KoBioLabs, Inc., priority 2015, dated 2024).)
